Laboratory results: patent US4108991A, “N-aminosulfenyl derivatives of aldicarb” (priority 1976, dated 1978)

What was measured:
[1] = test system: Mexican bean beetle; test: Initial contact activity, leaf dip, Mexican bean beetle; type: in vivo, Epilachna varivestis Muls.; settings: Epilachna varivestis, foliar, 48 h, initial, BB, 48 hours, read-out: Percent Kill
Procedure: (§1) Initial Contact Activity: One half gram of test compound was dissolved in 40 ml of acetone and this solution was dispersed in 360 ml of water containing one drop of isooctylphenyl polyethoxyethanol. Aliquots of this solution, which corresponds to 1250 ppm of active ingredient, were diluted with an appropriate amount of water to provide solutions containing various concentrations of active ingredient. Test organisms and techniques were as follows: The activity against the Mexican bean beetle (Epilachna varivestis Muls.) and the southern armyworm (Spodoptera eridania [Cram.]) was evaluated by dipping the leaves of pinto bean plants into the test solution and infesting the leaves with the appropriate immature-form insects when the foiliage had dried; the activity against the pea aphid (Acyrthosiphon pisum [Harris]) was evaluated on broad bean plants whose leaves were dipped before infestation with adult aphids; the activity against two-sotted spider mites (Tetranychus urticae Koch) was evaluated on pinto bean plants whose leaves were dipped after infestation with adult mites; the activity against the milkweed bug (Oncopeltus fasciatus [Dallas]), and the plum curculio (Conotrachelus nenuphar [Herbst]) was evaluated by spraying the test solutions into glass dishes or jars containing the adult insects; the activity against the confused flour beetle (Tribolium confusum duVal) was evaluated by introducing the insects into glass dishes which had been previously sprayed with test solution and allowed to dry. All organisms in the test were maintained in a holding room at 80° F and 50% relative humidity for an exposure period of 48 hours. At the end of this time, the dead and living insects or mites were counted, and the percent kill was calculated.

[2] = test system: Pea aphid; test: Initial contact activity, leaf dip, pea aphid; type: in vivo, Acyrthosiphon pisum [Harris]; settings: Acyrthosiphon pisum, foliar, 48 h, initial, PA, 48 hours, read-out: Percent Kill
Procedure: as §1

[3] = test system: Southern armyworm; test: Initial contact activity, leaf dip, southern armyworm; type: in vivo, Spodoptera eridania [Cram.]; settings: Spodoptera eridania, foliar, 48 h, initial, AW, 48 hours, read-out: Percent Kill
Procedure: as §1

[4] = test system: Milkweed bug; test: Initial contact activity, spray, milkweed bug; type: in vivo, Oncopeltus fasciatus [Dallas]; settings: Oncopeltus fasciatus, 48 h, initial, MWB, 48 hours, read-out: Percent Kill
Procedure: as §1

[5] = test system: Granary Weevil; test: Initial contact activity, granary weevil; type: in vivo; settings: Sitophilus granarius, 48 h, initial, GW, 48 hours, read-out: Percent Kill
[6] = test system: Mexican bean beetle; test: Residual (7-day) contact activity, Mexican bean beetle; type: in vivo, Epilachna varivestis Muls.; settings: Epilachna varivestis, 168 h
Procedure: as §1
(§2) Residual Contact Activity: The residual contact activity of the compounds was determined on the same organisms using the techniques described above, except that in each case the treated surface was allowed to dry and was exposed to normal light and air for seven days before introduction of the mites or insects.

[7] = test system: Pea aphid; test: Residual (7-day) contact activity, pea aphid; type: in vivo, Acyrthosiphon pisum [Harris]; settings: Acyrthosiphon pisum, 168 h
Procedure: as §1, §2

[8] = test system: Two-spotted spider mite; test: Residual (7-day) contact activity, two-spotted spider mite; type: in vivo, Tetranychus urticae Koch; settings: Tetranychus urticae, 168 h
Procedure: as §1, §2

[9] = test system: Milkweed bug; test: Residual (7-day) contact activity, milkweed bug; type: in vivo, Oncopeltus fasciatus [Dallas]; settings: Oncopeltus fasciatus, 168 h
Procedure: as §1, §2

[10] = test system: Mexican bean beetle; test: Systemic activity, soil-watering, Mexican bean beetle; type: in vivo, Epilachna varivestis Muls.; settings: Epilachna varivestis, 48 h, systemic, BB, read-out: Percent Kill
Procedure: as §1
(§3) Systemic Activity: Systemic activity was measured using a soil-watering technique. Test organisms were Mexican bean beetle, southern armyworm, pea aphid, and mites on plants as described above in this Example. With appropriate precautions to avoid contact of the solution with the test plant surfaces, 25 ml of a test solution, prepared as above to contain the desired amount of active ingredient, were poured evenly over the surface of the soil in which the plant was growing. The treated plants were maintained under normal growing conditions for three days to permit translocation of the toxicant, after which the leaves were infested. Two days after infestation, counts of living and dead insects were made.

[11] = test system: Southern armyworm; test: Systemic activity, soil-watering, southern armyworm; type: in vivo, Spodoptera eridania [Cram.]; settings: Spodoptera eridania, 48 h, systemic, AW, read-out: Percent Kill
Procedure: as §1, §3

[12] = test system: Two-spotted spider mite; test: Systemic activity, soil-watering, two-spotted spider mite; type: in vivo, Tetranychus urticae Koch; settings: Tetranychus urticae, 48 h, systemic, SM, read-out: Percent Kill
Procedure: as §1, §3

CSC(C)(C)C=NOC(=O)N(C)SN(C)C [Example IV, 2-Methyl-2-(methylthio)propanal O-[(dimethylaminosulfenyl)-(methyl)carbamoyl]oxime]
mortality at 20 ppm ([1]; 20 PPM): 5%
mortality at 39 ppm ([1]; 39 PPM): 6%
mortality at 156 ppm ([1]; 156 PPM): 39%
mortality at 1250 ppm ([1]; 1250 PPM): 100%
mortality at 20 ppm ([2]; 20 PPM): 0%
mortality at 39 ppm ([2]; 39 PPM): 5%
mortality at 156 ppm ([2]; 156 PPM): 95%
mortality at 1250 ppm ([2]; 1250 PPM): 100%
mortality at 156 ppm ([3]; 156 PPM): 0%
mortality at 312 ppm ([3]; 312 PPM): 0%
mortality at 625 ppm ([3]; 625 PPM): 0%
mortality at 1250 ppm ([3]; 1250 PPM): 12%
mortality at 5 ppm ([4]; 5 PPM): 20%
mortality at 10 ppm ([4]; 10 PPM): 26%
mortality at 20 ppm ([4]; 20 PPM): 43%
mortality at 1250 ppm ([4]; 1250 PPM): 100%
mortality at 20 ppm ([5]; 20 PPM): 0%
mortality at 39 ppm ([5]; 39 PPM): 5%
mortality at 156 ppm ([5]; 156 PPM): 50%
mortality at 1250 ppm ([5]; 1250 PPM): 100%
mortality at 625 ppm ([6]; read-out: Percent Kill, residual 7-day, BB, 625 PPM): 40%
mortality at 312 ppm ([6]; residual 7-day, BB, 312 PPM, read-out: Percent Kill): 17%
mortality at 1250 ppm ([6]; residual 7-day, BB, 1250 PPM, read-out: Percent Kill): 50%
mortality at 625 ppm ([7]; read-out: Percent Kill, residual 7-day, PA, 625 PPM): 5%
mortality at 312 ppm ([7]; residual 7-day, PA, 312 PPM, read-out: Percent Kill): 10%
mortality at 1250 ppm ([7]; residual 7-day, PA, 1250 PPM, read-out: Percent Kill): 5%
mortality at 625 ppm ([8]; read-out: Percent Kill, residual 7-day, SM, 625 PPM): 0%
mortality at 39 ppm ([8]; residual 7-day, SM, 39 PPM, read-out: Percent Kill): 18%
mortality at 156 ppm ([8]; residual 7-day, SM, 156 PPM, read-out: Percent Kill): 52%
mortality at 1250 ppm ([8]; residual 7-day, SM, 1250 PPM, read-out: Percent Kill): 100%
mortality at 625 ppm ([9]; read-out: Percent Kill, residual 7-day, MWB, 625 PPM): 100%
mortality at 312 ppm ([9]; residual 7-day, MWB, 312 PPM, read-out: Percent Kill): 65%
mortality at 1250 ppm ([9]; residual 7-day, MWB, 1250 PPM, read-out: Percent Kill): 100%
mortality at 39 ppm ([10]; 39 PPM): 100%
mortality at 312 ppm ([10]; 312 PPM): 100%
mortality at 39 ppm ([11]; 39 PPM): 0%
mortality at 312 ppm ([11]; 312 PPM): 100%
mortality at 5 ppm ([12]; 5 PPM): 100%
mortality at 39 ppm ([12]; 39 PPM): 100%
mortality at 312 ppm ([12]; 312 PPM): 100%
